Assay results from patent US5656662A, “Synthesis of optically pure 4-alkenyl- or 4-alkanyl-2-hydroxytetronic acids” (The Ohio State University Research Foundation, priority 1995, dated 1997).
Values joined by “and” are separate entries in the source; they are usually repeats but may differ in a detail not shown here. Equal values may be shown once. Read-outs that look alike come from different tables or passages of the source.

Assays:
human platelet = conditions: cited from earlier work; for IC50: literature, read-out: IC50, inhibition of AA-induced platelet aggregation
[1] = test system: human platelet-rich plasma; assay: Inhibition of arachidonic acid-induced aggregation in human platelet-rich plasma; format: cell-based
Protocol: The R- and S-enantiomers were tested as inhibitors of arachidonic acid-induced aggregation in human platelet-rich plasma. Data for individual experiments (2 separate donors) are given as pIC50 (log molar inhibitory concentration of each drug which blocks aggregation to arachidonic acid by 50%) Inhibitors were preincubated for 1 minute prior to addition of arachidonic acid (200-400 μM). Changes in light transmission were measured as an index of aggregation and quantified after 4 minutes.

platelet function = conditions: cited from earlier work
[2] = Homo sapiens, arithmetic average of raw data, N = 3, read-out: inhibitory concentration which blocks aggregation by 50%, AVE
[3] = Homo sapiens, average, N = 3, read-out: pIC50 (-1xLOG(0.000001xDATA)), AVE (converted)
[4] = Homo sapiens, geometric mean, N = 3, read-out: inhibitory concentration which blocks aggregation by 50%, back-transformed data (Geometric mean) AVE

| SMILES | IC50 (human platelet) [µM] | IC50 [1, 2] [µM] | IC50 [1, 3] [µM] | IC50 [1, 4] [µM] | also measured |
| --- | --- | --- | --- | --- | --- |
| O=C1OC(c2ccc(-c3ccc(Cl)cc3)cc2)C(O)=C1O (centres unmarked) [4-(4'-chlorobiphenyl)-2-hydroxytetronic acids] | 44 |  |  |  |  |
| CCCCC/C=C\C/C=C\C/C=C\C/C=C\CC[C@H]1OC(=O)C(O)=C1O [(R)-3,4-Dihydroxy-5-[all-Z)-3,6,9,12-octadecatetraenyl]-2(51H)-furanone] |  | 653 | 647 | 647 | IC50 ([1]; Homo sapiens, individual experiments, human platelet-rich plasma, arachidonic acid 200-400 μM, 1 minute preincubation, quantified after 4 minutes, read-out: inhibitory concentration which blocks aggregation to arachidonic acid by 50% (RAW DATA)): 764 µM; IC50 ([1]; Homo sapiens, individual experiments, human platelet-rich plasma, arachidonic acid 200-400 μM, read-out: pIC50 (-1xLOG(0.000001xDATA)) (converted)): 764 µM; pIC50 (-1xLOG(0.000001xDATA)) ([1]; individual experiments, human platelet-rich plasma, arachidonic acid 200-400 μM): 3.269 and 3.182; IC50 ([1]; individual experiments, human platelet-rich plasma, arachidonic acid 200-400 μM, 1 minute preincubation, quantified after 4 minutes, read-out: inhibitory concentration which blocks aggregation to arachidonic acid by 50% (RAW DATA)): 538 µM and 657 µM |
| CCCCC/C=C\C/C=C\C/C=C\C/C=C\CC[C@@H]1OC(=O)C(O)=C1O [(S)-3,4 -Dihydroxy-5-[(all-Z)-3,6,9,12-octadecatetraenyl]-2 (5H)-furanone] |  | 2.27 | 1.45 | 1.45 |  |
| O=C1OC(c2ccc(Cl)cc2)C(O)=C1O (centres unmarked) [CHTA, 4-(4-chlorophenyl)-2-hydroxytetronic acid] |  |  |  |  | antilipidemic and antiaggregatory properties (human platelet): possesses antilipidemic and antiaggregatory properties; inhibition of platelet function (platelet function): inhibits platelet function by both enzyme inhibitory and ROS scavenging mechanisms resulting ultimately in the blockage of thromboxane A2 synthesis |
| O=C1OC(c2ccc(-c3ccccc3)cc2)C(O)=C1O (centres unmarked) [Example 4-biphenyl] | 135 |  |  |  |  |
